Test results: patent US5017618A, “Labile derivatives of ketone analogs of 3-substituted-1-alkylamino-2-propanols and their use as beta-adrenergic blockers” (priority 1989, dated 1991)
Structures can show the parent of a compound that is named as a salt.

What was measured:
[1] = tested on: isoprenaline-induced tachycardia; assay: Effect on isoprenaline-induced tachycardia in rats (β-adrenergic antagonist activity); assay type: in vivo, rat (male Sprague-Dawley); conditions: for β-antagonist activity: dose levels used; for β-adrenergic antagonist activity against isoprenaline-tachycardia: rats, 6 mg/kg i.v., isoprenaline 50 μg/kg s.c., FIG. 1
Description: (§1) Groups of seven male Sprague-Dawley rats weighing 150-250 g were used. Each animal was anesthetized with sodium pentobarbital (50 mg/kg) and the jugular vein was cannulated with PE50 tubing. This cannula was subcutaneously threaded around the neck and exteriorized dorsally. The cannula was filled with heparin solution ([…]) and sealed with a solid 22-gauge stylet. Animals were housed in individual stainless steel cages and at least 24 hours were allowed for recovery from the surgery. Food and water were provided ad libitum. On the day of the experiment, the heart rate of each rat was monitored with a plethsmograph and the data recorded on a Physioscribe II recorder. One hour was allowed as an equilibration period before any drugs were administered. Drugs were dissolved in normal saline as 0.3% solution and were administered intravenously at a dose of 6 mg/kg. The resting heart rate was then recorded after 1, 3, 5, 10 and 15 minutes following i.v. injection. […] A control group of seven animals was intravenously administered saline solution and was treated exactly in the same manner as the drug-treated groups. The significance of the difference between the effect of saline solution and the drugs under investigation on the resting heart rate and on isoprenaline tachycardia was analyzed using the student's "t" test. Values are given as mean ±S.E. of the mean. […] (.) carteolol HCl, 1c; .circle. propranolone ketoxime HCl, 6a; (.gradient.) timolone ketoxime oxalate, 6b; (Δ) N-isopropyl timolone ketoxime HCl, 6d; carteolone oxime HCl, 6c; and (---) saline solution. […] Drugs were administered to groups of 5 rats using a stomach tube and the heart rate was recorded for 1 hour. […] A control group of 5 rats was treated exactly in the same manner after the oral administration of the appropriate volume of saline solution.

[2] = tested on: resting heart rate of rats; assay: Effect on resting heart rate in rats; assay type: in vivo, rat (male Sprague-Dawley); conditions: 6 mg/kg i.v. (Example 6)
Description: as §1

[3] = tested on: Intraocular Pressure (IOP) of Rabbits; assay: Effect on the Intraocular Pressure (IOP) of Rabbits; assay type: in vivo, rabbit (male New Zealand albino); conditions: for ocular hypotensive activity (in words): topical, dose levels used; for % change after treatment (IOP) / IOP, drug-treated: Table 3, 1% solution
Description: The animals were kept in individual cages with free access to food and water. Intraocular pressure was measured using a Digilab model 30R pneumatonometer. The pneumatonometer readings were checked at least twice a day using the Digilab calibration verifier. All measurements were obtained from unrestrained, unanesthetized rabbits. One drop of 0.5% propacaine (Ophthetic-Allergen Pharmaceuticals, Inc.) diluted 1:2 with saline was instilled in each eye immediately prior to IOP measurement. Drugs were administered as 1 or 2.5% solution in buffer pH 7.4 or in saline in both eyes of a group of at least four rabbits. Another group of at least three rabbits served as control and was administered the carrier only. […] Values are given as means ± standard error (S.E.) of the mean. The significance of the change was determined using the student's t-test.

Hygroscopicity = assay type: physicochemical; conditions: crystals
Description: In a 50 mL round-bottomed flask was placed a solution of oxalic acid (0.20 g, 2.22 mmole) in ether (10 mL). To this solution was added a solution of 5b (0.43 g, 1.3 mmole) in ether. The mixture was stirred at room temperature for 1 hour. The white non-hygroscopic crystals were filtered and dried in vacuo. Yield 0.53 g (97%), m.p. 165°-166° (dec.). NMR (CDCl3) δ 5.3 (s, 2H), 3.9-3.7 (m, 4H), 3.6-3.4 (m, 6H), 1.1 (s, 9H). Anal. (C18 H25 O7 N5), C,H,N.

[4] = propranolol enantiomers; cited from earlier work
[5] = Spontaneous isomerization of HCl salts of oximes (I'); assay type: physicochemical; conditions: HCl salts in solution
Source text: Spontaneous isomerization of HCl salts of compounds of formula (I') was also observed in solution; it was not observed in oxalates or bases of (I'). […] Acid-catalyzed isomerization was in most cases found to result in formation of the opposite isomers in solutions and in suspensions, respectively. In suspension, clearly the less soluble isomer is forming.

[6] = tested on: rabbit cornea (intraocular enzymes); assay type: in vivo; conditions: topical, 2% (w/v) aqueous solution
Description: The tissue was homogenized in an alkaline buffer (pH 10.0) to give 10% (w/v) homogenate, and extracted twice with equal volumes of methylene chloride/diethyl ether mixture (1:4, v/v) by shaking for 15 minutes. The organic layer was separated, then re-extractedwith an equal volume of aqueous 0.1M hydrochloric acid solution. The aqueous phase was made alkaline (pH 10.0) and extracted with methylene chloride/diethyl ether, the organic layer was transferred to a deactivated glass vial, and the solvent was evaporated at reduced pressure under nitrogen stream. The residue was dissolved in 0.01M hydrochloric acid solution and analyzed by high-performance liquid chromatography (HPLC). A Supelcosil LC-8-DB analytical column (7.5 cm×4.6 mm i.d., 3 μm particle size) and mobile phase (1.5 mL/min flow rate) consisting of 30% acetonitrile in an aqueous buffer solution of 0.02M monobasic potassium phosphate (adjusted to pH 3.0 with phosphoric acid) and 0.01 (v/v) triethylamine. UV detection at 280 nm was applied. […] The same experiment was carried out by administering 1-(isopropylamino)-3-(2-allylphenoxy)-2-propanone oxime hydrochloride salt in 2% (w/v) aqueous solution. […]

For `CC(C)(C)NCC(COc1cccc2c1CCC(=O)N2)=NO` [Compound 6c, 5-[3-(tert-Butylaminno)-2-(hydroxyimino)propoxy]-3,4-dihydrocarbostyril Hydrochloride], the β-antagonist activity [1] was “some β-antagonist activity”, the “β-adrenergic antagonist activity against isoprenaline-tachycardia” value (“β-adrenergic antagonist activity” below) [1] was “least active” and the “activity on resting heart rate (negative chronotropic action)” value (from here on “activity on resting heart rate”) [2] was “less active”. The “ocular hypotensive activity (in words)” value ([3]; rabbits) was “low activity at the dose levels used”.
For `CC(C)(C)NCC(COc1nsnc1N1CCOCC1)=NO.O=C(O)C(=O)O` [Timolone oxime oxalate 6b, 1-(tert-Butylamino)-3-[(4-morpholino-1,2,5-thiadiazol-3-yl)oxy]-2-propanoneoxime oxalate], the “β-adrenergic antagonist activity” value [1] was “most effective”, the “activity on resting heart rate” value [2] was “highest activity” and the “% change after treatment (IOP)” value ([3]; 30 min.) was -2.43%. The “IOP, drug-treated” value ([3]; 30 min.) was 27.75 ± 0.68 mm/Hg, the “% change after treatment (IOP)” value ([3]; 1 hr.) was -14.56% and the “IOP, drug-treated” value ([3]; 1 hr.) was 24.30 ± 0.63 mm/Hg. For the same compound, the “% change after treatment (IOP)” value ([3]; 2 hr.) was -15.61%, the “IOP, drug-treated” value ([3]; 2 hr.) was 24.00 ± 0.44 mm/Hg and the “% change after treatment (IOP)” value ([3]; 3 hr.) was -11.64%. The “IOP, drug-treated” value ([3]; 3 hr.) was 25.13 ± 0.96 mm/Hg, the “IOP, drug-treated” value ([3]; 4 hr.) was 26.93 ± 0.48 mm/Hg and the “% change after treatment (IOP)” value ([3]; 5 hr.) was -5.49%. For the same compound, the “IOP, drug-treated” value ([3]; 5 hr.) was 26.88 ± 0.52 mm/Hg, the “% change after treatment (IOP)” value ([3]; 6 hr.) was “+1.20%” and the “IOP, drug-treated” value ([3]; 6 hr.) was 28.78 ± 0.91 mm/Hg. For the same compound, the “% change after treatment (IOP)” value ([3]; 8 hr.) was -7.42%, the “IOP, drug-treated” value ([3]; 8 hr.) was 26.33 ± 0.40 mm/Hg and the “% change after treatment (IOP)” value ([3]; time zero) was 0.00%. The “IOP, drug-treated” value ([3]; time zero) was 28.44 ± 0.63 mm/Hg, the “ocular hypotensive activity compared with parent β-blocker” value ([3]; same dose levels, rabbits) was “faster in its onset and shorter in its duration than timolol 1b itself” and the “ocular hypotensive activity (in words)” value ([3]; rabbits) was “significant ocular hypotensive activity”. For the same compound, the hygroscopicity (Hygroscopicity) was “non-hygroscopic”.
In the case of `CC(C)NC[C@@H](O)COc1cccc2ccccc12` [R-(+)-enantiomer], the “metabolism relative to S-form” value [4] is given as “metabolized faster than the S-form”.
For `CC(C)NC[C@H](O)COc1cccc2ccccc12` [S-(-)-isomer], the “potency relative to R-(+)-enantiomer” value [4] is listed as “about 100 times”.
For `CC(C)(C)NCC(O)COc1cccc2c1CCC(=O)N2` (stereo not drawn) [Compound 1c, reference compound], the “activity on resting heart rate” value [2] was “lowest activity on the heart rate of rats”.
With `Cc1ccc(Cl)c(OCC(CNC(C)(C)C)=NO)c1` [Il] the spontaneous isomerization [5] was “no isomerization of Il was observed”.
In the case of `C=CCc1ccccc1OCC(CNC(C)C)=NO.Cl` [1-(isopropylamino)-3-(2-allylphenoxy)-2-propanone oxime hydrochloride], the “metabolites identified in cornea” value [6] was “showed the presence of the two oxime isomers, the corresponding ketone 1-(isopropylamino)-3-(2-allylphenoxy)-2-propanone, and the β-adrenergic blocker 1-(isopropylamino)-3-(2-allylphenoxy)-2-propanol(alprenolol)”.
With `CC(C)NCC(COc1nsnc1N1CCOCC1)=NO.Cl` [Compound 6d, 1-(Isopropylamino)-3-[(4-morpholino-1,2,5-thiadiazol-3-yl)oxy]-2-propanone oxime Hydrochloride] the β-antagonist activity [1] was “some β-antagonist activity”, the “β-adrenergic antagonist activity” value [1] was “least active” and the “activity on resting heart rate” value [2] was “less active”. For the same compound, the activity ([3]; selected dosage level) was “inactive at the selected dosage level” and the “ocular hypotensive activity (in words)” value ([3]; rabbits) was “low activity at the dose levels used”.
